# From PubChem BioAssay (NCI)
#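 Each compound was tested at five concentrations against cells in 96-well plates for 48 hours. At the GI50, growth is halved. At the TGI there is no net growth.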
# Legend:
# Test in all cases: inhibition of tumour cell growth, NCI panel, 48 h
# SW-620 colon = test system: SW-620 colon
# SF-539 CNS = test system: SF-539 CNS
# RPMI-8226 leukemia = test system: RPMI-8226 leukemia
# UO-31 renal = test system: UO-31 renal
# SF-295 CNS = test system: SF-295 CNS
# ACHN renal = test system: ACHN renal
# EKVX NSCLC = test system: EKVX NSCLC
# MDA-MB-435 = test system: MDA-MB-435
# MCF7 breast = test system: MCF7 breast
# BT-549 breast = test system: BT-549 breast
# NCI-H226 lung = test system: NCI-H226 lung
# SNB-75 CNS = test system: SNB-75 CNS
# RXF 393 renal = test system: RXF 393 renal
# SR leukemia = test system: SR leukemia
# NCI-H522 lung = test system: NCI-H522 lung
# SNB-19 CNS = test system: SNB-19 CNS
# MALME-3M melanoma = test system: MALME-3M melanoma
# SK-MEL-5 melanoma = test system: SK-MEL-5 melanoma
# OVCAR-3 ovarian = test system: OVCAR-3 ovarian
# OVCAR-4 ovarian = test system: OVCAR-4 ovarian
# K-562 leukemia = test system: K-562 leukemia
# UACC-257 melanoma = test system: UACC-257 melanoma
# SN12C renal = test system: SN12C renal
# HCT-15 colon = test system: HCT-15 colon
# A549 NSCLC = test system: A549 NSCLC
# CCRF-CEM leukemia = test system: CCRF-CEM leukemia
# MDA-MB-231 breast = test system: MDA-MB-231 breast
# HT29 colon = test system: HT29 colon
# UACC-62 melanoma = test system: UACC-62 melanoma
# OVCAR-8 ovarian = test system: OVCAR-8 ovarian
# 786-0 renal = test system: 786-0 renal
# SK-MEL-2 melanoma = test system: SK-MEL-2 melanoma
# OVCAR-5 ovarian = test system: OVCAR-5 ovarian
# SK-OV-3 ovarian = test system: SK-OV-3 ovarian
# M14 melanoma = test system: M14 melanoma
# A498 renal = test system: A498 renal
# HL-60(TB) leukemia = test system: HL-60(TB) leukemia
# CAKI-1 renal = test system: CAKI-1 renal
# PC-3 prostate = test system: PC-3 prostate
# HS 578T breast = test system: HS 578T breast
# DU-145 prostate = test system: DU-145 prostate
# COLO 205 colon = test system: COLO 205 colon
# LOX IMVI melanoma = test system: LOX IMVI melanoma
# TK-10 renal = test system: TK-10 renal
# HOP-62 NSCLC = test system: HOP-62 NSCLC
# SK-MEL-28 melanoma = test system: SK-MEL-28 melanoma
# NCI-H460 lung = test system: NCI-H460 lung
# U251 CNS = test system: U251 CNS
# KM12 colon = test system: KM12 colon
# MOLT-4 leukemia = test system: MOLT-4 leukemia
# HCT-116 colon = test system: HCT-116 colon
# NCI/ADR-RES ovarian = test system: NCI/ADR-RES ovarian
# HOP-92 NSCLC = test system: HOP-92 NSCLC
# IGROV1 ovarian = test system: IGROV1 ovarian
# SF-268 CNS = test system: SF-268 CNS
# HCC-2998 colon = test system: HCC-2998 colon
# NCI-H23 lung = test system: NCI-H23 lung
structure (smiles),measurement,setting,value
CCN1C(=O)N(CC)C2C1NN=c1s/c(=C\c3cccnc3)c(=O)n12 (stereo unspecified),GI50,SW-620 colon,0.393 µM
same,TGI,SW-620 colon,> 100 µM
same,GI50,SF-539 CNS,0.319 µM
same,TGI,SF-539 CNS,2.51 µM
same,GI50,RPMI-8226 leukemia,0.41 µM
same,TGI,RPMI-8226 leukemia,> 100 µM
same,GI50,UO-31 renal,1.53 µM
same,TGI,UO-31 renal,> 100 µM
same,GI50,SF-295 CNS,0.353 µM
same,TGI,SF-295 CNS,> 100 µM
same,GI50,ACHN renal,0.694 µM
same,TGI,ACHN renal,> 100 µM
same,GI50,EKVX NSCLC,0.659 µM
same,TGI,EKVX NSCLC,> 100 µM
same,GI50,MDA-MB-435,0.154 µM
same,TGI,MDA-MB-435,0.527 µM
same,GI50,MCF7 breast,0.333 µM
same,TGI,MCF7 breast,> 100 µM
same,GI50,BT-549 breast,1.04 µM
same,TGI,BT-549 breast,19.9 µM
same,GI50,NCI-H226 lung,1.1 µM
same,TGI,NCI-H226 lung,> 100 µM
same,GI50,SNB-75 CNS,0.116 µM
same,GI50,RXF 393 renal,0.271 µM
same,TGI,RXF 393 renal,3.35 µM
same,GI50,SR leukemia,0.132 µM
same,TGI,SR leukemia,> 100 µM
same,GI50,NCI-H522 lung,0.474 µM
same,TGI,NCI-H522 lung,> 100 µM
same,GI50,SNB-19 CNS,0.676 µM
same,TGI,SNB-19 CNS,> 100 µM
same,GI50,MALME-3M melanoma,0.599 µM
same,TGI,MALME-3M melanoma,> 100 µM
same,GI50,SK-MEL-5 melanoma,0.344 µM
same,TGI,SK-MEL-5 melanoma,12.6 µM
same,GI50,OVCAR-3 ovarian,0.359 µM
same,TGI,OVCAR-3 ovarian,8.53 µM
same,GI50,OVCAR-4 ovarian,5.72 µM
same,TGI,OVCAR-4 ovarian,> 100 µM
same,GI50,K-562 leukemia,0.3 µM
same,TGI,K-562 leukemia,> 100 µM
same,GI50,UACC-257 melanoma,> 100 µM
same,TGI,UACC-257 melanoma,> 100 µM
same,GI50,SN12C renal,0.616 µM
same,TGI,SN12C renal,> 100 µM
same,GI50,HCT-15 colon,0.414 µM
same,TGI,HCT-15 colon,> 100 µM
same,GI50,A549 NSCLC,0.733 µM
same,TGI,A549 NSCLC,> 100 µM
same,GI50,CCRF-CEM leukemia,0.41 µM
same,TGI,CCRF-CEM leukemia,> 100 µM
same,GI50,MDA-MB-231 breast,3.57 µM
same,TGI,MDA-MB-231 breast,> 95.3 µM
same,GI50,HT29 colon,0.386 µM
same,TGI,HT29 colon,> 100 µM
same,GI50,UACC-62 melanoma,0.417 µM
same,TGI,UACC-62 melanoma,> 100 µM
same,GI50,OVCAR-8 ovarian,0.823 µM
same,TGI,OVCAR-8 ovarian,> 100 µM
same,GI50,786-0 renal,0.695 µM
same,TGI,786-0 renal,> 100 µM
same,GI50,SK-MEL-2 melanoma,> 100 µM
same,TGI,SK-MEL-2 melanoma,> 100 µM
same,GI50,OVCAR-5 ovarian,1.97 µM
same,TGI,OVCAR-5 ovarian,> 100 µM
same,GI50,SK-OV-3 ovarian,2.02 µM
same,TGI,SK-OV-3 ovarian,> 100 µM
same,GI50,M14 melanoma,0.298 µM
same,TGI,M14 melanoma,> 100 µM
same,GI50,A498 renal,0.224 µM
same,TGI,A498 renal,1.01 µM
same,GI50,HL-60(TB) leukemia,0.395 µM
same,GI50,CAKI-1 renal,0.346 µM
same,TGI,CAKI-1 renal,> 100 µM
same,GI50,PC-3 prostate,0.451 µM
same,TGI,PC-3 prostate,> 100 µM
same,GI50,HS 578T breast,0.44 µM
same,TGI,HS 578T breast,> 100 µM
same,GI50,DU-145 prostate,0.412 µM
same,TGI,DU-145 prostate,> 48.7 µM
same,GI50,COLO 205 colon,0.392 µM
same,TGI,COLO 205 colon,> 53.3 µM
same,GI50,LOX IMVI melanoma,0.543 µM
same,TGI,LOX IMVI melanoma,> 100 µM
same,GI50,TK-10 renal,> 100 µM
same,TGI,TK-10 renal,> 100 µM
same,GI50,HOP-62 NSCLC,0.628 µM
same,TGI,HOP-62 NSCLC,> 100 µM
same,GI50,SK-MEL-28 melanoma,0.957 µM
same,TGI,SK-MEL-28 melanoma,> 100 µM
same,GI50,NCI-H460 lung,0.4 µM
same,TGI,NCI-H460 lung,> 100 µM
same,GI50,U251 CNS,0.612 µM
same,TGI,U251 CNS,> 100 µM
same,GI50,KM12 colon,0.464 µM
same,TGI,KM12 colon,> 100 µM
same,GI50,MOLT-4 leukemia,0.596 µM
same,TGI,MOLT-4 leukemia,> 100 µM
same,GI50,HCT-116 colon,0.478 µM
same,TGI,HCT-116 colon,> 100 µM
same,GI50,NCI/ADR-RES ovarian,0.38 µM
same,TGI,NCI/ADR-RES ovarian,> 100 µM
same,TGI,HOP-92 NSCLC,> 100 µM
same,GI50,IGROV1 ovarian,0.843 µM
same,TGI,IGROV1 ovarian,> 100 µM
same,GI50,SF-268 CNS,21.8 µM
same,TGI,SF-268 CNS,> 100 µM
same,GI50,HCC-2998 colon,1.29 µM
same,TGI,HCC-2998 colon,> 100 µM
same,GI50,NCI-H23 lung,0.689 µM
same,TGI,NCI-H23 lung,> 100 µM
